# From patent US11959083B2, “Immunosuppression-reverting oligonucleotides inhibiting the expression of CD39” (Secarna Pharmaceuticals GmbH & Co. KG, priority 2016, dated 2024)
# l = locked nucleic acid (LNA); d = 2'-deoxy (DNA)
# Test system: mCD39 mRNA
# Assay: mCD39 mRNA knockdown efficacy screen in A20 cells (single dose, gymnotic delivery, QuantiGene Singleplex)
# Type: cell-based, mouse
# Settings: 10 μM, three days, normalized to HPRT1
# Method: FIG. 14-1 and 14-2 show mCD39 mRNA knockdown efficacy of mCD39 antisense oligonucleotides in the murine cancer cell line A20 (mouse B cell lymphoma). A20 cells were treated with a single dose of 10 μM of the respective antisense oligonucleotide. As negative control, cells were treated with neg1, an antisense oligonucleotide having the sequence CGTTTAGGCTATGTACTT (SEQ ID NO:99). Residual mCD39 mRNA expression relative to untreated cells is depicted. Expression values were normalized to expression of the housekeeping gene HPRT1.
# In order to analyze the efficacy of mCD39 antisense oligonucleotides with regard to the knockdown of mCD39 mRNA expression in a cancer cell line, A20 (mouse B cell lymphoma, ATCC) cells were treated with a single dose (concentration: 10 μM without addition of any transfection reagent; this process is called gymnotic delivery) of the respective antisense oligonucleotide as indicated in FIG. 14. As control, cells were treated with neg1, an antisense oligonucleotide having the sequence CGTTTAGGCTATGTACTT (SEQ ID NO:99). mCD39 and HPRT1 mRNA expression was analyzed after three days using the QuantiGene Singleplex assay (Affymetrix) and mCD39 expression values were normalized to HPRT1 expression values.
row,Substance,Relative mCD39 mRNA expression (compared to non-treated cells)
1,"+C*+C*+A*C*T*T*G*T*A*G*A*T*G*+T*+A*+C (antisense CCACTTGTAGATGTAC; sugars from the 5' end l3 d10 l3, all phosphorothioate, methylation of C not given here) [A04010MR]",0.25
2,"+C*+C*+C*A*G*C*A*G*A*T*A*G*T*T*+A*+A*+T (antisense CCCAGCAGATAGTTAAT; sugars from the 5' end l3 d11 l3, all phosphorothioate, methylation of C not given here) [A04024MR]",0.35
3,"+C*+C*+T*A*G*T*T*G*T*G*T*A*+T*+A*+C (antisense CCTAGTTGTGTATAC; sugars from the 5' end l3 d9 l3, all phosphorothioate, methylation of C not given here) [A04008MR]",0.58
4,"+C*+C*+T*A*G*T*T*G*T*G*T*A*T*+A*+C*+T (antisense CCTAGTTGTGTATACT; sugars from the 5' end l3 d10 l3, all phosphorothioate, methylation of C not given here) [A04021MR]",0.35
5,"+C*+G*+T*T*G*C*T*G*T*C*T*T*T*+G*+A*+T (antisense CGTTGCTGTCTTTGAT; sugars from the 5' end l3 d10 l3, all phosphorothioate, methylation of C not given here) [A04018MR]",0.18
6,"+C*+G*+T*T*G*C*T*G*T*C*T*T*T*G*+A*+T*+C (antisense CGTTGCTGTCTTTGATC; sugars from the 5' end l3 d11 l3, all phosphorothioate, methylation of C not given here) [A04031MR]",0.14
7,"+C*+T*+G*T*T*C*G*T*A*G*T*C*+T*+C*+C (antisense CTGTTCGTAGTCTCC; sugars from the 5' end l3 d9 l3, all phosphorothioate, methylation of C not given here) [A04004MR]",0.17
8,"+G*+A*+C*C*T*T*T*C*A*C*T*T*G*G*C*A*+T (antisense GACCTTTCACTTGGCAT; sugars from the 5' end l3 d13 l1, all phosphorothioate, methylation of C not given here) [A04023MR]",0.03
9,"+G*+A*+T*C*C*A*A*A*G*C*G*C*+C*+A*+A (antisense GATCCAAAGCGCCAA; sugars from the 5' end l3 d9 l3, all phosphorothioate, methylation of C not given here) [A04002MR]",0.06
10,"+G*+C*+C*C*A*G*C*A*G*A*T*A*G*+T*+T*+A (antisense GCCCAGCAGATAGTTA; sugars from the 5' end l3 d10 l3, all phosphorothioate, methylation of C not given here) [A04012MR]",0.78
11,"+G*+C*+C*C*A*G*C*A*G*A*T*A*G*T*+T*+A*+A (antisense GCCCAGCAGATAGTTAA; sugars from the 5' end l3 d11 l3, all phosphorothioate, methylation of C not given here) [A04025MR]",0.35
12,"+G*+C*+T*A*T*A*C*T*G*C*C*T*C*+T*+T*+T (antisense GCTATACTGCCTCTTT; sugars from the 5' end l3 d10 l3, all phosphorothioate, methylation of C not given here) [A04019MR]",0.05
13,"+G*+C*+T*A*T*A*C*T*G*C*C*T*C*T*+T*+T*+C (antisense GCTATACTGCCTCTTTC; sugars from the 5' end l3 d11 l3, all phosphorothioate, methylation of C not given here) [A04032MR]",0.02
14,"+G*+G*+T*A*C*T*T*C*T*C*C*T*T*+T*+A*+C (antisense GGTACTTCTCCTTTAC; sugars from the 5' end l3 d10 l3, all phosphorothioate, methylation of C not given here) [A04016MR]",0.17
15,"+G*+G*+T*G*G*C*A*C*T*G*T*T*+C*+G*+T (antisense GGTGGCACTGTTCGT; sugars from the 5' end l3 d9 l3, all phosphorothioate, methylation of C not given here) [A04005MR]",0.15
16,"+G*+G*+T*G*G*C*A*C*T*G*T*T*C*G*+T*+A*+G (antisense GGTGGCACTGTTCGTAG; sugars from the 5' end l3 d11 l3, all phosphorothioate, methylation of C not given here) [A04030MR]",0.21
17,"+G*+T*+A*C*A*G*G*T*T*G*G*T*G*+T*+G*+A (antisense GTACAGGTTGGTGTGA; sugars from the 5' end l3 d10 l3, all phosphorothioate, methylation of C not given here) [A04009MR]",0.89
18,"+G*+T*+T*A*T*A*G*C*C*T*T*G*+C*+A*+G (antisense GTTATAGCCTTGCAG; sugars from the 5' end l3 d9 l3, all phosphorothioate, methylation of C not given here) [A04006MR]",0.06
19,"+G*+T*+T*C*G*T*A*G*T*C*T*C*+C*+A*+G (antisense GTTCGTAGTCTCCAG; sugars from the 5' end l3 d9 l3, all phosphorothioate, methylation of C not given here) [A04003MR]",0.07
20,"+T*+A*+C*A*T*T*T*C*T*T*A*C*T*C*+G*+T*+T (antisense TACATTTCTTACTCGTT; sugars from the 5' end l3 d11 l3, all phosphorothioate, methylation of C not given here) [A04033MR]",0.12
21,"+T*+C*+G*T*A*G*T*C*T*C*C*A*G*T*+G*+C*+C (antisense TCGTAGTCTCCAGTGCC; sugars from the 5' end l3 d11 l3, all phosphorothioate, methylation of C not given here) [A04027MR]",0.03
22,"+T*+G*+G*C*A*C*T*G*T*T*C*G*T*+A*+G*+T (antisense TGGCACTGTTCGTAGT; sugars from the 5' end l3 d10 l3, all phosphorothioate, methylation of C not given here) [A04015MR]",0.32
23,"+T*+G*+T*T*C*G*T*A*G*T*C*T*C*C*+A*+G*+T (antisense TGTTCGTAGTCTCCAGT; sugars from the 5' end l3 d11 l3, all phosphorothioate, methylation of C not given here) [A04029MR]",0.11
24,"+T*+T*+C*G*T*A*G*T*C*T*C*C*A*G*+T*+G*+C (antisense TTCGTAGTCTCCAGTGC; sugars from the 5' end l3 d11 l3, all phosphorothioate, methylation of C not given here) [A04028MR]",0.02
